Experimental data: patent publication US20100048611A1, “TETRAHYDROPYRROLOPYRIDINE, TETRAHYDROPYRAZOLOPYRIDINE, TETRAHYDRO-IMIDAZOPYRIDINE AND TETRAHYDROTRIAZOLOPYRIDINE DERIVATIVES AND USE THEREOF” (Bayer Healthcare AG, priority 2006, published 2010)

Target: human factor Xa (FXa) (Homo sapiens, UniProt P00742)
Assay: Determination of the factor Xa inhibition (chromogenic substrate)
Assay type: biochemical
Conditions: chromogenic substrate Pefachrome FXa, 25° C., extinction at 405 nm
Method: a.1) Determination of the Factor Xa Inhibition:
The enzymatic activity of human factor Xa (FXa) is measured using the conversion of a chromogenic substrate specific for FXa. Factor Xa cleaves p-nitroaniline from the chromogenic substrate. The determinations are carried out in microtitre plates as follows:
The test substances, in various concentrations, are dissolved in DMSO and incubated for 10 minutes at 25° C. with human FXa ([…] dissolved in 50 mmol of Tris buffer [C,C,C-tris(hydroxymethyl)aminomethane], 150 mmol/l of NaCl, 0.1% BSA [bovine serum albumin], pH=8.3). Pure DMSO is used as control. The chromogenic substrate (150 μmol/l of Pefachrome® FXa from Pentapharm) is then added. After an incubation time of 20 minutes at 25° C., the extinction at 405 nm is determined.

human factor Xa (FXa), sequence (P00742 235-488 limits assumed): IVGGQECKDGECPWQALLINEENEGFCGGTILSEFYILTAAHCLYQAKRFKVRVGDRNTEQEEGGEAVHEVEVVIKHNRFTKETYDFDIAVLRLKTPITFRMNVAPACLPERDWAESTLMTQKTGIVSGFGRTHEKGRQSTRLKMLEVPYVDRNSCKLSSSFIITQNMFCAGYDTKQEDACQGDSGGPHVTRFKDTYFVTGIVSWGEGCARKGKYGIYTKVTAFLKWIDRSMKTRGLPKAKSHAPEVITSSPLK
human factor Xa (FXa), sequence (P00742 41-179 partner limits assumed): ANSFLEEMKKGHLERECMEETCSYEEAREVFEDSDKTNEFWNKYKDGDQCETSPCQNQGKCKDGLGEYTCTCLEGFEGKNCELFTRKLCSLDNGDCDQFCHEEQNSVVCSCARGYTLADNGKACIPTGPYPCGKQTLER

IC50: 0.8 nM
Compound: COc1ccc(-n2nc(C(N)=O)c3c2C(=O)N(c2ccc(N4CCOC4=N)cc2)CC3)cc1 [Example 1, 6-[4-(2-Imino-1,3-oxazolidin-3-yl)phenyl]-1-(4-methoxyphenyl)-7-oxo-4,5,6,7-tetrahydro-1H-pyrazolo[3,4-c]pyridine-3-carboxamide methanesulphonate]
